Results from patent US20250340591A1, “COMPOSITION FOR PREVENTING OR TREATING INFLAMMATORY BOWEL DISEASE CONTAINING NOVEL COMPOUND” (ANYGEN CO., LTD., priority 2021, published 2025).

System: C57BL6/J mice with ulcerative colitis induced by DSS
Assay: DSS-induced ulcerative colitis animal model
Assay type: in vivo
Method: Specifically, an animal model of ulcerative colitis among inflammatory bowel diseases was prepared by feeding C57BL6/J mice (Central Lab. Animal Inc.) with water containing 3% DSS (dextran sodium sulfate).
The untreated (vehicle) mice were set as a control group, the mice fed with only DSS (vehicle+3% DSS) were set as a negative control group, and the mice administered intraperitoneally with SASP (sulfasalazine) at 50 mg/kg after treatment with DSS (SASP 50 mg/kg+3% DSS) were set as a positive control group. As a test group, the mice were intraperitoneally administered with HKFY-34 at 0.1, 1, and 10 mg/kg, respectively. HKFY-34 was administered once a day for 5 days, and during the administration period, the stool condition and body weight loss were measured in the subjects. […]

[1] = 0.1, 1 and 10 mg/kg intraperitoneal for 5 days, ELISA, vs negative control, FIG. 88
[2] = 0.1, 1 and 10 mg/kg intraperitoneal for 5 days, qPCR, FIG. 90
[3] = 0.1, 1 and 10 mg/kg intraperitoneal for 5 days, qPCR, vs negative control, FIG. 87

CCCCCCCC(=O)NCCCC[C@H](NC(=O)[C@@H](N)Cc1cn(C(c2ccccc2)c2ccccc2)cn1)C(=O)N[C@H](Cc1ccc(C)cc1)C(=O)N[C@@H](Cc1ccc(O)cc1)C(=O)O [HKFY-34, ((R)-2-((S)-2-((S)-2-amino-3-(1-benzhydryl-1H-imidazol-4-yl)propanamido)-6-octanamidohexanamido)-3-(p-tolyl)propanoyl)-L-tyrosine]
concentration of IL-1β in the blood [1]: significantly decreased
concentration of TNF-α in the blood [1]: significantly decreased
mRNA expression level of ZO-1 in colon tissue [2]: significantly increased by HKFY-34 in a dose-dependent manner
mRNA expression level of occludin in colon tissue [2]: significantly increased by HKFY-34 in a dose-dependent manner
mRNA expression level of IL-1β in colon tissue [3]: significantly decreased
mRNA expression level of IL-6 in colon tissue [3]: significantly decreased
mRNA expression level of IL-8 in colon tissue [3]: significantly decreased
mRNA expression level of TNF-α in colon tissue [3]: significantly decreased
length contraction of the colon (0.1, 1 and 10 mg/kg intraperitoneal for 5 days, vs negative control (DSS alone), FIG. 84): reduced by HKFY-34 in a dose-dependent manner
degree of damage caused by inflammation of the colon tissue (H&E staining) (0.1, 1 and 10 mg/kg intraperitoneal for 5 days, vs negative control, FIG. 89): alleviated
body weight loss (0.1, 1 and 10 mg/kg intraperitoneal once a day for 5 days, 3% DSS, FIG. 83): significantly inhibited by HKFY-34 in a dose-dependent manner
stool consistency (diarrhea) score (0.1, 1 and 10 mg/kg intraperitoneal, score 0 to 3, FIG. 85): alleviated in a dose-dependent manner
blood in stool (fecal bleeding) score (0.1, 1 and 10 mg/kg intraperitoneal, score 0 to 3, FIG. 86): alleviated in a dose-dependent manner
